Results published in PubChem BioAssay (NCI).
Values joined by “and” are separate entries in the source; they are usually repeats but may differ in a detail not shown here. Equal entries are not always repeated.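 Interpolation was linear, between the two tested concentrations surrounding the appropriate level; five concentrations were tested over 48 hours in 96-well plates. Here, GI50 denotes the concentration required for 50% inhibition of growth. The concentration for full growth arrest is given as TGI.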

The molecules below were run on NCI-H460 lung (assay: inhibition of tumour cell growth, NCI panel, 48 h).

Question: With `COC(=O)c1cc2c(s1)C(=O)c1ccccc1-2` as the molecule, how does the TGI read?
Answer: > 100 µM

Question: For `Cn1c2c(c3ccccc31)C1CCCCCCC1C1C(=O)OC(=O)C21` (configuration not stated), which TGI is on record?
Answer: > 100 µM

Question: With `Cc1ccc(S(=O)(=O)N(CC(=O)O)c2ccccc2)cc1` as the molecule, how does the TGI read?
Answer: > 100 µM

Question: For `COc1ccc(C(=O)C(c2ccc(OC)cc2)C2(O)C(=O)Nc3ccc([N+](=O)[O-])cc32)cc1` (configuration not stated), which TGI is on record?
Answer: > 100 µM

Question: With `O=C(/C=C/c1ccccc1O)c1ccccc1O` as the molecule, how does the TGI read?
Answer: > 100 µM

Question: Which GI50 does the source give for `CCn1c(-c2nonc2N)nc2c(C#CC(C)(C)O)nc(OC[C@H](N)c3ccccc3)cc21` here?
Answer: 2.76 µM

Question: What about the TGI of the same molecule?
Answer: 6.31 µM

Question: `O=C1/C(=C/c2ccc(Br)cc2)COc2ccc(O)c(O)c21` was tested. Which GI50 did it give?
Answer: 1.68 µM

Question: What about the TGI of the same molecule?
Answer: 4.06 µM

Question: What does the source list for `N#Cc1c(NN)n(C2OC(CO)C(O)C2O)c2ncnc(N)c12` (configuration not stated)?
Answer: GI50: 0.032 µM; TGI: 0.412 µM

Question: `CCCCCCNC(=O)c1cc(NCc2cc(O)ccc2O)ccc1O` was tested. Which GI50 did it give?
Answer: 21.5 µM

Question: What about the TGI of the same molecule?
Answer: 82.3 µM

Question: Which TGI does the source give for `N#CC(N)(C(=O)CCC(=O)Nc1cccc(Cl)c1)c1ccc(Cl)cc1` (configuration not stated) here?
Answer: > 100 µM

Question: Which TGI does the source give for `CC(CCC=O)CCOCc1ccccc1` (configuration not stated) here?
Answer: > 100 µM

Question: `O=C(Nc1nc2ccc(C(F)(F)F)cc2s1)c1cc(Cl)ccc1O` was tested. Which GI50 did it give?
Answer: 0.414 µM

Question: What about the TGI of the same molecule?
Answer: > 100 µM

Question: Which TGI does the source give for `S=C(Nc1ccccc1)N(/N=C/C=C/c1ccccc1)c1nnc(-c2ccccc2)c(-c2ccccc2)n1` here?
Answer: > 100 µM

Question: How did the TGI turn out when `COc1ccc2c(c1)CCCC(Br)C2=O` (configuration not stated) was run?
Answer: 10.5 µM

Question: What does the source list for `COc1ccc(-n2cc(-c3cc(OC)c(OC)c(OC)c3)c(C(=O)C(F)(F)F)c2C)cc1`?
Answer: GI50: 29.4 µM; TGI: > 100 µM

Question: `COc1cc(C2CC(c3cccc(Br)c3)=NN2C(C)=O)cc(OC)c1OC` (configuration not stated) was tested. Which GI50 did it give?
Answer: 0.344 µM

Question: What about the TGI of the same molecule?
Answer: 11.7 µM

Question: How did the GI50 turn out when `COc1cc(N(CCC#N)CCC#N)ccc1/C(N=Nc1ccc([N+](=O)[O-])cc1)=N/NC(=O)c1cc(Br)ccc1O` was run?
Answer: 33.8 µg/mL

Question: And the TGI?
Answer: 107 µg/mL

Question: With `CS(=O)(=O)Nc1ccc2c(c1)oc(=O)c1ccccc12` as the molecule, how does the TGI read?
Answer: > 100 µM

Each molecule was assayed on OVCAR-3 ovarian (assay: inhibition of tumour cell growth, NCI panel, 48 h).

Question: `CC(C)N(C(=O)C12C3C4C5(C#N)C3C1(C#N)C5C42I)C(C)C` (configuration not stated) was tested. Which TGI did it give?
Answer: > 100 µM

Question: With `C=COCCCOc1ccccc1` as the molecule, how does the TGI read?
Answer: > 100 µM

Question: Which TGI does the source give for `COc1ccc2c3c([nH]c2c1[N+](=O)[O-])C(C)=NCC3` here?
Answer: > 100 µM

Question: `C=C(c1nc2ccc(Cl)cc2[nH]c1=O)C(O)c1ccc(C(O)C(=O)c2nc3ccc(Cl)cc3[nH]c2=O)cc1` (configuration not stated) was tested. Which TGI did it give?
Answer: > 100 µM

Question: For `CC(C)(C)CC(C)(C)c1cc2c(O)c(c1)Cc1cc(C(C)(C)CC(C)(C)C)cc(c1O)Cc1cc(C(C)(C)CC(C)(C)C)cc(c1O)Cc1cc(C(C)(C)CC(C)(C)C)cc(c1O)C2`, which TGI is on record?
Answer: > 100 µM

Question: `Cc1cc([N+](=O)[O-])ccc1Nc1cccc(Cl)c1C` was tested. Which TGI did it give?
Answer: 27.8 µM

Question: For `CC1=C(C(=O)Nc2ccccc2)C(c2ccccc2)C(C(=O)Nc2ccccc2)=C(C)N1`, which TGI is on record?
Answer: > 100 µM

Question: How did the TGI turn out when `Cc1nn(-c2ccccc2)c2nc(N3CCOCC3)nnc12` was run?
Answer: > 100 µM

Question: How did the TGI turn out when `CNC(=O)N(C)N=NCCCl` was run?
Answer: > 100 µM

Question: For `CCOc1ccccc1C=C1c2ccccc2C(=O)c2ccccc21`, which TGI is on record?
Answer: 10.5 µM

Question: Which TGI does the source give for `O=C(CCn1[nH]c(=O)c(Cl)c(Cl)c1=O)NO` here?
Answer: > 100 µM

Question: `[N-]=[N+]=NC12CC3C4CC5CC3C(C1)C(C5)C4C2` was tested. Which TGI did it give?
Answer: > 100 µM

Question: How did the TGI turn out when `CN(C)c1nc2ccccc2[nH]1` was run?
Answer: > 100 µM

Question: Which TGI does the source give for `NNC(=S)N/N=C(\CC1OC(=O)c2ccccc21)c1ccccc1O` (configuration not stated) here?
Answer: > 100 µM

Question: For `COC(=O)C1=C(O)c2cc(OC)c(OC)cc2C(c2ccc(OC)c(OC)c2)C1` (configuration not stated), which TGI is on record?
Answer: > 100 µM

Question: Which TGI does the source give for `O=C1c2cccc(NCCCNCCO)c2C(=O)c2cccc(NCCCNCCO)c21` here?
Answer: 5.65 µM and 9.94 µM

Question: For `COC1(OC)CC2C(=O)N(Cc3ccccc3)C1C(S(=O)(=O)c1ccccc1)C2S(=O)(=O)c1ccccc1` (configuration not stated), which TGI is on record?
Answer: 22.9 µM

Question: `Cc1cc(CC(O)c2ccc(Cl)c(Cl)c2)nc(=O)[nH]1` (configuration not stated) was tested. Which TGI did it give?
Answer: > 100 µM

Question: Which TGI does the source give for `COC(=O)C(=Cc1cc(OC)ccc1OC)C(=O)OC` here?
Answer: 50.6 µM

Question: Which TGI does the source give for `CC1=NNC(=O)C2CCC(=O)N12` (configuration not stated) here?
Answer: > 100 µM

Question: With `CC(C)c1ccccc1NC(=O)CCc1n[nH]c(=S)o1` as the molecule, how does the TGI read?
Answer: > 100 µM

Question: For `CCCCC(C(=O)C(=O)NC1C2CC3CC(C2)CC1C3)C(=O)C(C)C` (configuration not stated), which TGI is on record?
Answer: > 100 µM

Question: With `COC(=O)c1cc2c(s1)C(=O)c1ccccc1-2` as the molecule, how does the TGI read?
Answer: > 100 µM

Question: `Cn1c2c(c3ccccc31)C1CCCCCCC1C1C(=O)OC(=O)C21` (configuration not stated) was tested. Which TGI did it give?
Answer: 47.8 µM

Question: For `Cc1ccc(S(=O)(=O)N(CC(=O)O)c2ccccc2)cc1`, which TGI is on record?
Answer: > 100 µM

Question: For `COc1ccc(C(=O)C(c2ccc(OC)cc2)C2(O)C(=O)Nc3ccc([N+](=O)[O-])cc32)cc1` (configuration not stated), which TGI is on record?
Answer: > 100 µM
